Measured values published in patent US10689370B2, “Cyclopropane carboxamide modulators of cystic fibrosis transmembrane conductance regulator” (Auspex Pharmaceuticals, Inc., priority 2014, dated 2020).

Assay: In vitro human liver microsomal stability assay
Type: in vitro ADME
Conditions: human liver microsomes 2 mg per mL protein, NADPH-generating system, 1 uM test compound, 37 °C, 0-240 min; for half-life % change over d0: degradation half-life relative to non-deuterated d0 (Example 1); for Clearance % change over d0: relative to non-deuterated d0 (Example 1)
Description: In Vitro Liver Microsomal Stability Assay
Human liver microsomal stability assays were conducted at 2 mg per mL liver microsome protein with an NADPH-generating system consisting of NADP (1 mM, pH 7.4), glucose 6-phosphate (5 mM, pH 7.4) and glucose 6-phosphate dehydrogenase (I unit/mL). Test compounds were prepared as solutions in DMSO and added to the assay mixture (1 uM, final concentration in incubation) and incubated at 37±1° C. Reactions were initiated with addition of the test compounds and stopped at 0, 60, 120 or 240 min after test article addition with stop reagent, acetonitrile. Samples were centrifuged (920×g for 10 min at 10° C.) in 96-well plates. Supernatant fractions were analyzed by LC-MS/MS to determine the percent remaining and estimate the degradation half-life of the test compounds.

In the case of `[2H]C([2H])(O)C(C)(C)c1cc2cc(NC(=O)C3(c4ccc5c(c4)OC(F)(F)O5)CC3)c(F)cc2n1C[C@@H](O)CO` [Example 2], the “half-life % change over d0” value is reported as 200.0% and the “Clearance % change over d0” value is reported as −66.7%.

For `[2H]C([2H])([2H])C(CO)(c1cc2cc(NC(=O)C3(c4ccc5c(c4)OC(F)(F)O5)C([2H])([2H])C3([2H])[2H])c(F)cc2n1C[C@@H](O)CO)C([2H])([2H])[2H]` [Example 7, (R)-1-(2,2-difluorobenzo[d][1,3]dioxol-5-yl)-N-(1-(2,3-dihydroxypropyl)-6-fluoro-2-(1-hydroxy-2-methyl(^2H6)propan-2-yl)-1H-indol-5-yl)(^2H4)cyclopropanecarboxamide], the “half-life % change over d0” value was −4.2% and the “Clearance % change over d0” value was 4.8%.

With `[2H]C([2H])(O)C(C)(C)c1cc2cc(NC(=O)C3(c4ccc5c(c4)OC(F)(F)O5)CC3)c(F)cc2n1C[C@@]([2H])(O)C([2H])([2H])O` [Example 5, (R)1-(2,2-difluoro-2H-1,3-benzodioxol-5-yl)-N-[1-[2,3-dihydroxy(2,3,3-^2H3)propyl]-6-fluoro-2-(1-hydroxy-2-methyl(1,1-^2H2)propan-2-yl)-1H-indol-5-yl]cyclopropane-1-carboxamide] the “half-life % change over d0” value was 250.3% and the “Clearance % change over d0” value was −71.4%.

With `[2H]C([2H])(O)[C@H](O)Cn1c(C(C)(C)CO)cc2cc(NC(=O)C3(c4ccc5c(c4)OC(F)(F)O5)CC3)c(F)cc21` [Example 8, (R)1-(2,2-difluoro-2H-1,3-benzodioxol-5-yl)-N-[1-[2,3-dihydroxy(3,3-^2H2)propyl]-6-fluoro-2-(1-hydroxy-2-methylpropan-2-yl)-1H-indol-5-yl]cyclopropane-1-carboxamide] the “half-life % change over d0” value was 4.8% and the “Clearance % change over d0” value was −4.8%.

With `CC(C)(CO)c1cc2cc(NC(=O)C3(c4ccc5c(c4)OC(F)(F)O5)CC3)c(F)cc2n1C[C@@H](O)CO` [Example 1, (R)-1-(2,2-difluorobenzo[d][1,3]dioxol-5-yl)-N-(1-(2,3-dihydroxypropyl)-6-fluoro-2-(1-hydroxy-2-methylpropan-2-yl)-1H-indol-5-yl)cyclopropanecarboxamide, reference compound] the “half-life % change over d0” value was 0.0% and the “Clearance % change over d0” value was 0.0%.

With `[2H]C([2H])([2H])C(CO)(c1cc2cc(NC(=O)C3(c4ccc5c(c4)OC(F)(F)O5)CC3)c(F)cc2n1C[C@@H](O)CO)C([2H])([2H])[2H]` [Example 3, 1-(2,2-difluoro-2H-1,3-benzodioxol-5-yl)-N-[1-[(2R)-2,3-dihydroxypropyl]-6-fluoro-2-[1-hydroxy-2-methyl(^2H6)propan-2-yl]-1H-indol-5-yl]cyclopropane-1-carboxamide] the “half-life % change over d0” value was 13.3% and the “Clearance % change over d0” value was −11.9%.

With `[2H]C([2H])(O)C(C)(C)c1cc2cc(NC(=O)C3(c4ccc5c(c4)OC(F)(F)O5)C([2H])([2H])C3([2H])[2H])c(F)cc2n1C[C@@H](O)CO` [Example 6] the “half-life % change over d0” value was 281.8% and the “Clearance % change over d0” value was −73.8%.

With `[2H]C([2H])(O)[C@]([2H])(O)Cn1c(C(C)(C)CO)cc2cc(NC(=O)C3(c4ccc5c(c4)OC(F)(F)O5)CC3)c(F)cc21` [Example 4, (R)1-(2,2-difluoro-2H-1,3-benzodioxol-5-yl)-N-[1-[2,3-dihydroxy(2,3,3-^2H3)propyl]-6-fluoro-2-(1-hydroxy-2-methylpropan-2-yl)-1H-indol-5-yl]cyclopropane-1-carboxamide] the “half-life % change over d0” value was 4.8% and the “Clearance % change over d0” value was −4.8%.
